One block for each molecule: values may come before it.
Legend:
[1] = target: T1, TRAX (translin-associated factor X) (Homo sapiens, UniProt Q99598); test: SPR (Biacore X), TRAX amine-coupled to CM5 chip; assay type: binding; details: HBS-P running buffer, GSL diluted from methanol stock
T1 construct: gene TSNAX; full-length, cDNA from HUVEC mRNA, pET-21d, nine-histidine tag (text says N-terminal; His codons printed in the R'-primer), expressed in E. coli BL21 (DE3), HisTrap / DEAE / SP-Sepharose; immobilised on CM5 chip
T1 sequence (Q99598 1-290): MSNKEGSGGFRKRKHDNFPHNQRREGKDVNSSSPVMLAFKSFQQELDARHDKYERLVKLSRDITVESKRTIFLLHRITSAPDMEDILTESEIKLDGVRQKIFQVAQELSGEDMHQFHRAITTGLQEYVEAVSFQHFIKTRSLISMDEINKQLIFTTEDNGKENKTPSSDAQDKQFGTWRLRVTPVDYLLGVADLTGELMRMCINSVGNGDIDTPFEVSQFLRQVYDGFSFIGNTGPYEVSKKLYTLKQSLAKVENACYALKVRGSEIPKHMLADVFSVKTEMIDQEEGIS

[2] = target: T2, recombinant human full-length translin-associated factor X (TRAX) (human, UniProt Q99598 1-290); test: SPR; Biacore X; TRAX amine-coupled to CM5 chip (about 2500 RU), PLCβ1-C flowed over, HBS-P running buffer; competition runs with PLCβ1-C 360 nM plus 0, 1 or 9 μM GHCer; details: both partners purified
T2 construct: translin-associated factor X (TRAX), human, full length, cDNA from HUVECs, in pET-21d; Removal of the tag is not mentioned; also called recombinant TRAX; wild-type TRAX; source: E. coli BL21 (DE3) pLys, purified (HisTrap FF, DEAE-Sepharose, SP-Sepharose)
T2 sequence (looked up): T1 sequence (Q99598 1-290)

- Kd ([1]; competes with PLCβ1 C-terminal domain): 0.0409 µM
Molecule: Fucα1 → 2Galβ1 → 3GalNAcβ1 → 3Galα1 → 4Galβ1 → 4Glcβ1-ceramide [GHCer]

- Kd ([1]; tested at 10 μM): > 10 µM
Molecule: Galβ1 → 3GalNAcβ1 → 3Galα1 → 4Galβ1 → 4Glcβ1-ceramide [SSEA3Cer]

- Kd [2]: ~7.5 µM
B1: recombinant C-terminal domain of PLCβ1 (PLCβ1-C), amino acids 890 to 1161 (domain or fragment, human, UniProt Q9NQ66 890-1161, looked up)
chain: APAKTEDLIQSVLTEVEAQTIEELKQQKSFVKLQKKHYKEMKDLVKRHHKKTTDLIKEHTTKYNEIQNDYLRRRAALEKSAKKDSKKKSEPSSPDHGSSTIEQDLAALDAEMTQKLIDLKDKQQQQLLNLRQEQYYSEKYQKREHIKLLIQKLTDVAEECQNNQLKKLKEICEKEKKELKKKMDKKRQEKITEAKSKDKSQMEEEKTEMIRSYIQEVVQYIKRLEEAQSKRQEKLVEKHKEIRQQILDEKPKLQVELEQEYQDKFKRLPLEI
notes: phospholipase C β1 (PLCβ1), human, C-terminal domain, residues 890-1161, cDNA from HUVECs, in pET-21d; Removal of the tag is not mentioned; also called recombinant C-terminus of PLCβ1; source: E. coli BL21 (DE3) pLys, purified (HisTrap FF, DEAE-Sepharose, SP-Sepharose)
